Structures are written as SMILES. Bounds are passed on as bounds.

The subject of this test is HT-22. Nature of the test: Neuroprotective activity against glutamate-induced damage in mouse HT22 cells after 24 hrs. The format is functional, cell-based. The following applies: HT-22, 24 h.
As to `COc1ccc(-c2nnc(CCCCC3CCSS3)o2)cc1OC` (stereo not given), the concentration for a half-maximal effect (EC50) is more than 10 µM. In the case of `COc1ccc(CCn2nnnc2CCCCC(S)CCS)cc1OC` (stereo not given) it was more than 10 µM; in that of `COc1ccc(-c2cn(CCCCCC3CCSS3)nn2)cc1OC` (stereo not given), more than 10 µM.

For `COc1ccc(-c2noc(CCCCC(S)CCS)n2)cc1OC` (stereo not given), the half-maximal effective concentration (EC50) was more than 10 µM. Compound `COc1ccc(CCc2nnc(CCCCC3CCSS3)o2)cc1OC` (stereo not given) had an EC50 of more than 10 µM. Then `O=C(CCCCC(S)CCS)NCCc1ccc(O)c(O)c1` (stereo not given), with more than 10 µM; and `Oc1ccc(-c2cn(CCCCCC3CCSS3)nn2)cc1O` (stereo not given), with 6.23 µM; and `O=C(CCCCC1CCSS1)NCCc1ccc(O)c(O)c1` (stereo not given), with more than 10 µM.

The compound `COc1ccc(-c2csc(CCCCC3CCSS3)n2)cc1OC` (stereo not given) registered a concentration giving a half-maximal response (EC50) of more than 10 µM. Compound `Oc1ccc(-c2noc(CCCCC3CCSS3)n2)cc1O` (stereo not given) returned a 50% effective concentration (EC50) of 3.63 µM. Consider `Oc1ccc(CCn2nnnc2CCCCC2CCSS2)cc1O` (stereo not given), for which the midpoint of the response, the EC50, lay at 2.99 µM. Then `COc1ccc(CCn2nnnc2CCCCC2CCSS2)cc1OC` (stereo not given), with more than 10 µM. In the case of `Oc1ccc(CCc2nnc(CCCCC3CCSS3)o2)cc1O` (stereo not given) it was 4.21 µM. `COc1ccc(-c2noc(CCCCC3CCSS3)n2)cc1OC` (stereo not given) registered a half-maximal effective concentration (EC50) of more than 10 µM.

Take `COc1ccc(CCNC(=O)CCCCC2CCSS2)cc1OC` (stereo not given): the EC50 was more than 10 µM.

Broadly, the EC50 is the concentration needed to bring the measured effect to its halfway point.

These data come from ChEMBL document CHEMBL1149537, “Design and synthesis of 1,2-dithiolane derivatives and evaluation of their neuroprotective activity” (Bioorg Med Chem Lett, 2007).
